Test systems include SF-268; SF-539; OVCAR-8; HCT-116; RXF 393; U-251; OVCAR-5; LOX IMVI; HL-60; RPMI-8226; NCI-H460; T47D; NCI-H23; BT-549; SN12C; HOP-62; HCC 2998; SNB-75; SR.
What all share (test): growth of human tumour cells (NCI), 48 h

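Tested at 5 concentrations; 48 h exposure; 96-well plates; endpoints linearly interpolated, else capped at highest concentration. GI50: concentration for 50% inhibition of growth.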 Active and inactive are the calls of the source. Rule as the data show it: active = GI50 up to about 1.1 µM and inactive = higher.

`O=c1c2ccccc2nc2n1C(c1ccc([N+](=O)[O-])cc1)C2(c1ccccc1)c1ccccc1` (stereo unspecified): the GI50 in the assay on SF-268, in the assay with SF-539, in the assay on OVCAR-8, in the assay on HCT-116, in the assay with RXF 393 and with U-251 was > 100 µM (inactive) throughout. Further, the GI50 with OVCAR-5 is > 100 µM (inactive); in the assay on LOX IMVI it was > 100 µM (inactive); in the assay with HL-60, 37.2 µM (inactive); in the assay with RPMI-8226, 8.2 µM (inactive); with NCI-H460 it was > 100 µM (inactive); in the assay on T47D, > 100 µM (inactive). Further, the GI50 in the assay with NCI-H23, in the assay with BT-549, with SN12C and in the assay on HOP-62 was > 100 µM (inactive) each time.

Take `COc1cc(C(c2ccc3c(c2)OCO3)N2C(=O)CCC2C(=O)O)cc(OC)c1OC` (stereo unspecified): the GI50 in the assay with SF-268, in the assay with SF-539, in the assay with HCC 2998, with OVCAR-8, in the assay on HCT-116 and in the assay on U-251 was > 100 µM (inactive) in each case. Further, the GI50 in the assay on OVCAR-5, with LOX IMVI, with SNB-75, in the assay on HL-60, with RPMI-8226 and in the assay on NCI-H460 was > 100 µM (inactive) each time. Also, the GI50 in the assay on T47D, in the assay with NCI-H23, in the assay with BT-549, with SN12C and in the assay with HOP-62 was > 100 µM (inactive) in each case.

`CC(=O)OC1CCC2(C)C(=CC(C3C=C4CC(OC(C)=O)CCC4(C)C4=C3C3CC5OC6(CCC(C)CO6)C(C)C5C3(C)CC4)C3=C2CCC2(C)C3CC3OC4(CCC(C)CO4)C(C)C32)C1` (stereo unspecified): the GI50 was 11.4 µM (inactive) with SF-268; 11.1 µM (inactive) in the assay on OVCAR-8; 15.1 µM (inactive) with HCT-116; 16.1 µM (inactive) with RXF 393; 14.7 µM (inactive) with U-251; 11.9 µM (inactive) in the assay with SR. For the same compound, the GI50 in the assay on OVCAR-5 is 17.7 µM (inactive); with LOX IMVI it was 16.5 µM (inactive); with SNB-75 it was 16.3 µM (inactive); in the assay on RPMI-8226, 4.98 µM (inactive); in the assay on T47D it was 15.5 µM (inactive); in the assay on NCI-H23, 14.7 µM (inactive). Also, the figures for the GI50 with BT-549, in the assay on SN12C and in the assay on HOP-62 were 15.6 µM (inactive), 17.6 µM (inactive) and 15.5 µM (inactive), respectively.

For `Nc1ccc2c(c1)N(C(=O)c1cc3cc(NC(=O)c4cc5ccccc5o4)ccc3[nH]1)CC2CCl` (stereo unspecified), the GI50 in the assay with SF-268 was 0.0498 µM (active); with SF-539, 0.0191 µM (active); in the assay with HCC 2998 it was 0.0724 µM (active); in the assay with OVCAR-8, 0.0397 µM (active); with HCT-116, 0.0533 µM (active); in the assay with RXF 393, 0.018 µM (active). Besides, the GI50 is 0.106 µM (active) in the assay on U-251; 0.114 µM (active) in the assay on OVCAR-5; 0.0398 µM (active) with LOX IMVI; 0.153 µM (active) in the assay with SNB-75; 0.0416 µM (active) in the assay with HL-60; 0.0284 µM (active) in the assay with RPMI-8226. Also, the GI50 in the assay with NCI-H460 is 0.0205 µM (active); with T47D, 0.114 µM (active); in the assay with NCI-H23, 0.0211 µM (active); in the assay on BT-549, 0.164 µM (active); in the assay with SN12C, 0.215 µM (active); in the assay with HOP-62, 0.138 µM (active).

As to `O=c1[nH]c(N/N=C\C(O)C(O)C(O)C(O)CO)nc2ccccc12` (stereo unspecified), the GI50 with SF-268, with SF-539, in the assay on OVCAR-8, with HCT-116, with U-251 and in the assay on SR was > 100 µM (inactive) each time. Moreover, the GI50 with OVCAR-5, in the assay with LOX IMVI, with SNB-75, in the assay with HL-60, in the assay with RPMI-8226 and in the assay on NCI-H460 was > 100 µM (inactive) in each case. Also, the GI50 in the assay with T47D, with NCI-H23, in the assay on BT-549, in the assay with SN12C and in the assay with HOP-62 was > 100 µM (inactive) in each case.

In the case of `CCn1c(-c2ccc(OC(C)=O)cc2)c(C)c2cc(OC(C)=O)ccc21` [ZINDOXIFENE], the GI50 in the assay on SF-268 was 16.6 µM (inactive); with SF-539 it was 15.8 µM (inactive); with OVCAR-8 it was 20 µM (inactive); in the assay with HCT-116 it was 6.84 µM (inactive); in the assay on RXF 393 it was 6.82 µM (inactive); in the assay with U-251, 11.3 µM (inactive). Moreover, the GI50 was 5.27 µM (inactive) in the assay on SR; 24.9 µM (inactive) in the assay on OVCAR-5; 11.9 µM (inactive) in the assay with LOX IMVI; 16.5 µM (inactive) with SNB-75; 11 µM (inactive) in the assay with HL-60; 12.5 µM (inactive) in the assay on RPMI-8226. In addition, the GI50 in the assay with NCI-H460 was 6.04 µM (inactive); in the assay with T47D it was 19.4 µM (inactive); with NCI-H23, 24.1 µM (inactive); in the assay on BT-549, 29.4 µM (inactive); in the assay on SN12C, 27.5 µM (inactive); with HOP-62, 21.3 µM (inactive).

Take `CSC1(CC(=O)N2CCCCC2)C(=O)Nc2ccccc21` (stereo unspecified): the GI50 in the assay on SF-268, in the assay on SF-539, with HCC 2998, in the assay with HCT-116, with U-251 and in the assay on OVCAR-5 was > 100 µM (inactive) each time. The GI50 in the assay with LOX IMVI, with SNB-75, with RPMI-8226, in the assay on NCI-H460, in the assay with T47D and with NCI-H23 was > 100 µM (inactive) in each case. Further, the GI50 in the assay with BT-549 and with HOP-62 was > 100 µM (inactive) throughout.

On to `C#CCOC(=O)c1ccccc1O`, for which the GI50 in the assay with SF-268, in the assay on SF-539, in the assay on OVCAR-8, in the assay on HCT-116, with RXF 393 and with U-251 was > 100 µM (inactive) throughout. For the same compound, the GI50 in the assay with SR, in the assay on OVCAR-5, with LOX IMVI, in the assay on SNB-75, in the assay on HL-60 and in the assay on RPMI-8226 was > 100 µM (inactive) each time. Moreover, the GI50 with NCI-H460, in the assay on T47D, with NCI-H23, with BT-549, in the assay on SN12C and with HOP-62 was > 100 µM (inactive) in each case.

Take `COC(=O)C1(NC(=O)C(CC(=O)OCc2ccccc2)NC(=O)OCc2ccccc2)CCCCCC1` (stereo unspecified): the GI50 in the assay with SF-268 was 42 µM (inactive); with SF-539 it was 23.1 µM (inactive); in the assay on OVCAR-8, 27.2 µM (inactive); in the assay on HCT-116, 31 µM (inactive); in the assay with RXF 393 it was 55 µM (inactive); in the assay on U-251, 44.9 µM (inactive). Further, the GI50 with SR is 18.4 µM (inactive); in the assay with OVCAR-5 it was 39.2 µM (inactive); with LOX IMVI, 24.8 µM (inactive); with SNB-75, 35.1 µM (inactive); in the assay with HL-60 it was 17.7 µM (inactive); in the assay on RPMI-8226, 3.93 µM (inactive). The GI50 with NCI-H460 was 34.8 µM (inactive); in the assay on T47D it was 30.8 µM (inactive); in the assay on NCI-H23 it was 41.8 µM (inactive); in the assay with BT-549, 17.4 µM (inactive); in the assay with HOP-62 it was 10.1 µM (inactive).

On to `CCCCCCc1cc2cc(C(=O)Nc3ccccc3)c(=N)oc2cc1O`, for which the GI50 is 4.85 µM (inactive) with SF-268; 4.49 µM (inactive) with SF-539; 3.46 µM (inactive) in the assay on HCC 2998; 3.93 µM (inactive) with OVCAR-8; 2.5 µM (inactive) with HCT-116; 5.56 µM (inactive) in the assay on RXF 393. The GI50 was 2.99 µM (inactive) in the assay on U-251; > 83.6 µM (inactive) with OVCAR-5; 3.23 µM (inactive) in the assay with LOX IMVI; > 23 µM (inactive) in the assay on SNB-75; 4.08 µM (inactive) in the assay on HL-60; 4.08 µM (inactive) in the assay on RPMI-8226. For the same compound, the GI50 with NCI-H460 is 3.24 µM (inactive); with T47D it was 2.33 µM (inactive); with NCI-H23, 2.36 µM (inactive); in the assay on BT-549 it was 9.25 µM (inactive); in the assay on SN12C, 2.42 µM (inactive); in the assay on HOP-62, 2.76 µM (inactive).

Turning to `Oc1c(Cl)cc(CN(Cc2cc(Cl)c(O)c(Cl)c2)C2CCCCC2)cc1Cl`, the GI50 with SF-268, in the assay with SF-539, in the assay with OVCAR-8, with HCT-116, with RXF 393 and in the assay on U-251 was > 100 µM (inactive) in each case. Moreover, the GI50 in the assay with SR, with OVCAR-5, with LOX IMVI, with SNB-75, in the assay with RPMI-8226 and in the assay with NCI-H460 was > 100 µM (inactive) throughout. For the same compound, the GI50 with T47D, with NCI-H23, in the assay with BT-549, with SN12C and in the assay with HOP-62 was > 100 µM (inactive) in each case.

Consider `CSc1nc(Nc2cccc(C(F)(F)F)c2)c2c(N)nn(C)c2n1`, for which the GI50 is > 100 µM (inactive) with SF-268; 89.7 µM (inactive) in the assay on HCC 2998; > 100 µM (inactive) in the assay on OVCAR-8; > 100 µM (inactive) with HCT-116; 20.5 µM (inactive) in the assay on RXF 393; > 100 µM (inactive) with U-251. Besides, the GI50 with OVCAR-5 was > 100 µM (inactive); with LOX IMVI, 71.1 µM (inactive); with SNB-75, 81.3 µM (inactive); in the assay on RPMI-8226, > 100 µM (inactive); in the assay with NCI-H460, 50.9 µM (inactive); with T47D, 71.8 µM (inactive). Besides, the GI50 with NCI-H23, in the assay on BT-549, in the assay on SN12C and in the assay with HOP-62 was > 100 µM (inactive) throughout.
